The test system of this experiment is MV-4-11 cells. The experiment can be described thus: Gene expression microarray analysis (Affymetrix PrimeView) and GSEA. Details: RFU PODN (11730768_x_at) / Fold change /veh PODN (11730768_x_at) / RFU LINC00158 (11744669_a_at) / Fold change /veh LINC00158 (11744669_a_at) / RFU DUSP10 (11751237_a_at) / Fold change /veh DUSP10 (11751237_a_at) / RFU ID3 (11757404_x_at) / Fold change /veh ID3 (11757404_x_at) / RFU PLEKHG5 (11737974_s_at) / Fold change /veh PLEKHG5 (11737974_s_at) / RFU LRRC4B (11730491_at) / Fold change /veh LRRC4B (11730491_at) / RFU GIMAP4 (11747438_a_at) / Fold change /veh GIMAP4 (11747438_a_at) / RFU KRT8 (11758183_x_at) / Fold change /veh KRT8 (11758183_x_at) / RFU CNN1 (11734310_a_at) / Fold change /veh CNN1 (11734310_a_at) / RFU VPS37D (11726825_at) / Fold change /veh VPS37D (11726825_at) / RFU C10orf10 (11716522_x_at) / Fold change /veh C10orf10 (11716522_x_at) / RFU KIR2DL2 /// KIR2DL4 /// KIR2DL5A /// KIR2DL5B /// KIR2DS1 /// KIR2DS2 /// KIR2DS3 /// KIR2DS4 /// KIR3DL3 /// KIR3DL3 /// KIR3DS1 (11738374_at) / Fold change /veh KIR2DL2 /// KIR2DL4 /// KIR2DL5A /// KIR2DL5B /// KIR2DS1 /// KIR2DS2 /// KIR2DS3 /// KIR2DS4 /// KIR3DL3 /// KIR3DL3 /// KIR3DS1 (11738374_at) / RFU C1QL1 (11718748_at) / Fold change /veh C1QL1 (11718748_at) / RFU TMPRSS4 (11747572_a_at) / Fold change /veh TMPRSS4 (11747572_a_at) / RFU HAMP (11756126_x_at) / Fold change /veh HAMP (11756126_x_at) / RFU RNFT2 (11725882_a_at) / Fold change /veh RNFT2 (11725882_a_at) / RFU NR4A2 (11747474_a_at) / Fold change /veh NR4A2 (11747474_a_at) / RFU ABCC12 (11746883_a_at) / Fold change /veh ABCC12 (11746883_a_at) / RFU TMEM136 (11760407_x_at) / Fold change /veh TMEM136 (11760407_x_at) / RFU CLDN22 /// WWC2 (11732394_at) / Fold change /veh CLDN22 /// WWC2 (11732394_at) / RFU HLA-DPB1 (11760878_x_at) / Fold change /veh HLA-DPB1 (11760878_x_at) / RFU SPINT1 (11716480_a_at) / Fold change /veh SPINT1 (11716480_a_at) / RFU GAP43 (11754022_s_at) / Fold change /veh GAP43 (11754022_s_at) / RFU A4GNT (11735810_at) / Fold change /veh A4GNT (11735810_at) / RFU PRB3 (11715151_x_at) / Fold change /veh PRB3 (11715151_x_at) / RFU TUBB4B (11761932_at) / Fold change /veh TUBB4B (11761932_at) / RFU CAPN14 (11732068_a_at) / Fold change /veh CAPN14 (11732068_a_at) / RFU TMCC2 (11721928_a_at) / Fold change /veh TMCC2 (11721928_a_at) / RFU IRGQ (11745062_a_at) / Fold change /veh IRGQ (11745062_a_at) / RFU FAM174B (11720279_a_at) / Fold change /veh FAM174B (11720279_a_at) / RFU TMPRSS4 (11748680_a_at) / Fold change /veh TMPRSS4 (11748680_a_at) / RFU FAM212B (11763350_a_at) / Fold change /veh FAM212B (11763350_a_at) / RFU PLEKHG5 (11743358_a_at) / Fold change /veh PLEKHG5 (11743358_a_at) / RFU ZSCAN30 (11745921_a_at) / Fold change /veh ZSCAN30 (11745921_a_at) / RFU CMKLR1 (11741424_a_at) / Fold change /veh CMKLR1 (11741424_a_at) / RFU LOC101060620 /// MAPK8IP1 (11723275_at) / Fold change /veh LOC101060620 /// MAPK8IP1 (11723275_at) / RFU SPTSSB (11747773_x_at) / Fold change /veh SPTSSB (11747773_x_at) / RFU PRSS12 (11739890_at) / Fold change /veh PRSS12 (11739890_at) / RFU BIN1 (11741810_x_at) / Fold change /veh BIN1 (11741810_x_at) / RFU WNT11 (11732464_a_at) / Fold change /veh WNT11 (11732464_a_at) / RFU C10orf10 (11716521_a_at) / Fold change /veh C10orf10 (11716521_a_at) / RFU C5orf56 (11738089_at) / Fold change /veh C5orf56 (11738089_at) / RFU CYB561 (11721691_x_at) / Fold change /veh CYB561 (11721691_x_at) / RFU ANKRD19P (11752326_a_at) / Fold change /veh ANKRD19P (11752326_a_at) / RFU OR2T12 /// OR2T33 /// OR2T8 (11738714_s_at) / Fold change /veh OR2T12 /// OR2T33 /// OR2T8 (11738714_s_at) / RFU VCAN (11748164_a_at) / Fold change /veh VCAN (11748164_a_at) / RFU JSRP1 (11732532_at) / Fold change /veh JSRP1 (11732532_at) / RFU KRTAP10-11 (11738290_x_at) / Fold change /veh KRTAP10-11 (11738290_x_at) / RFU MYO3A (11730013_a_at) / Fold change /veh MYO3A (11730013_a_at) / RFU EBF3 (11725865_a_at) / Fold change /veh EBF3 (11725865_a_at) / RFU CAMK2N1 (11719241_x_at) / Fold change /veh CAMK2N1 (11719241_x_at) / RFU C5orf56 (11738088_a_at) / Fold change /veh C5orf56 (11738088_a_at) / RFU OLFML3 (11715873_a_at) / Fold change /veh OLFML3 (11715873_a_at) / RFU LOC100653217 /// NTM (11731650_a_at) / Fold change /veh LOC100653217 /// NTM (11731650_a_at) / RFU MAPK11 (11762145_a_at) / Fold change /veh MAPK11 (11762145_a_at) / RFU FIZ1 (11724087_x_at) / Fold change /veh FIZ1 (11724087_x_at) / RFU OASL (11726364_x_at) / Fold change /veh OASL (11726364_x_at) / RFU SOX15 (11748057_x_at) / Fold change /veh SOX15 (11748057_x_at) / RFU CD79A (11719716_a_at) / Fold change /veh CD79A (11719716_a_at) / RFU HIST1H1D (11736915_at) / Fold change /veh HIST1H1D (11736915_at) / RFU CASKIN2 (11723855_a_at) / Fold change /veh CASKIN2 (11723855_a_at) / RFU LOC730098 (11760151_x_at) / Fold change /veh LOC730098 (11760151_x_at) / RFU OR4N2 (11742367_at) / Fold change /veh OR4N2 (11742367_at) / RFU PRRT2 (11749266_a_at) / Fold change /veh PRRT2 (11749266_a_at) / RFU SNX32 (11753110_a_at) / Fold change /veh SNX32 (11753110_a_at) / RFU CDHR5 (11726645_a_at) / Fold change /veh CDHR5 (11726645_a_at) / RFU RCAN1 (11760418_a_at) / Fold change /veh RCAN1 (11760418_a_at) / RFU FAM167A (11723789_a_at) / Fold change /veh FAM167A (11723789_a_at) / RFU FAM26E (11764081_at) / Fold change /veh FAM26E (11764081_at) / RFU ISYNA1 (11749810_s_at) / Fold change /veh ISYNA1 (11749810_s_at) / RFU ACY1 (11761880_at) / Fold change /veh ACY1 (11761880_at) / RFU 11764098_at / Fold change /veh 11764098_at / RFU SAMD14 (11745864_x_at) / Fold change /veh SAMD14 (11745864_x_at) / RFU NPB (11741838_a_at) / Fold change /veh NPB (11741838_a_at) / RFU TMPRSS6 (11731388_a_at) / Fold change /veh TMPRSS6 (11731388_a_at) / RFU KRTAP10-2 (11738614_at) / Fold change /veh KRTAP10-2 (11738614_at) / RFU ARHGAP8 /// PRR5-ARHGAP8 (11727945_x_at) / Fold change /veh ARHGAP8 /// PRR5-ARHGAP8 (11727945_x_at) / RFU KRTAP5-7 /// NADSYN1 (11734609_at) / Fold change /veh KRTAP5-7 /// NADSYN1 (11734609_at) / RFU RASL12 (11751679_a_at) / Fold change /veh RASL12 (11751679_a_at) / RFU CDKN2B (11736163_a_at) / Fold change /veh CDKN2B (11736163_a_at) / RFU PRF1 (11729649_at) / Fold change /veh PRF1 (11729649_at) / RFU, ZNF638 /// ZNF638-IT1 / Fold change vs veh, ZNF638 /// ZNF638-IT1 / RFU, PANK3 / Fold change vs veh, PANK3 / RFU, SH3YL1 / Fold change vs veh, SH3YL1 / RFU, ZEB2 / Fold change vs veh, ZEB2 / RFU, NRIP1 / Fold change vs veh, NRIP1 / RFU, PTTG1IP / Fold change vs veh, PTTG1IP / RFU, CAPN2 / Fold change vs veh, CAPN2 / RFU, MED14 / Fold change vs veh, MED14 / RFU, SNORA58 / Fold change vs veh, SNORA58 / RFU, C1orf63 / Fold change vs veh, C1orf63 / RFU, LRRFIP1 / Fold change vs veh, LRRFIP1 / RFU, NDUFAF7 / Fold change vs veh, NDUFAF7 / RFU, SLC12A2 / Fold change vs veh, SLC12A2 / RFU, IBTK / Fold change vs veh, IBTK / RFU, ESF1 / Fold change vs veh, ESF1 / Fold change vs veh, TMEM50B / RFU, TAOK1 / Fold change vs veh, TAOK1 / RFU, ACBD3 / Fold change vs veh, ACBD3 / RFU, TMA16 / Fold change vs veh, TMA16 / RFU, RWDD3 / Fold change vs veh, RWDD3 / RFU, BCAT1 / Fold change vs veh, BCAT1 / RFU, EDEM3 / Fold change vs veh, EDEM3 / RFU, TMEM33 / Fold change vs veh, TMEM33 / RFU, WDR75 / Fold change vs veh, WDR75 / RFU, AHCTF1 / Fold change vs veh, AHCTF1 / RFU, TFRC / Fold change vs veh, TFRC / RFU, ZDHHC17 / Fold change vs veh, ZDHHC17 / RFU, NOM1 / Fold change vs veh, NOM1 / RFU, ARL8B / Fold change vs veh, ARL8B / RFU, ZBTB11 / Fold change vs veh, ZBTB11 / RFU, TAMM41 / Fold change vs veh, TAMM41 / RFU, KIAA1704 /// LOC100996395 / Fold change vs veh, KIAA1704 /// LOC100996395 / RFU, ING1 / Fold change vs veh, ING1 / RFU, TRMT61B / Fold change vs veh, TRMT61B / RFU, FUBP3 / Fold change vs veh, FUBP3 / RFU, TP53 / Fold change vs veh, TP53 / RFU, TNKS2 / Fold change vs veh, TNKS2 / RFU, ZFP14 / Fold change vs veh, ZFP14 / RFU, ACTR2 / Fold change vs veh, ACTR2 / RFU, PPP3R1 / Fold change vs veh, PPP3R1 / RFU, PIK3R1 / Fold change vs veh, PIK3R1 / RFU, HNRNPA1 / Fold change vs veh, HNRNPA1 / RFU, RNF170 / Fold change vs veh, RNF170 / RFU, ZNF28 / Fold change vs veh, ZNF28 / RFU, RNGTT / Fold change vs veh, RNGTT / RFU, OGT / Fold change vs veh, OGT / RFU, BRD1 / Fold change vs veh, BRD1 / RFU, MARS / Fold change vs veh, MARS / RFU, ZNF655 / Fold change vs veh, ZNF655 / RFU, FAHD1 / Fold change vs veh, FAHD1 / RFU, BDP1 / Fold change vs veh, BDP1 / RFU, LRRCC1 / Fold change vs veh, LRRCC1 / RFU, ARID1A / Fold change vs veh, ARID1A / RFU, ZNF146 / Fold change vs veh, ZNF146 / RFU, ZNF330 / Fold change vs veh, ZNF330 / RFU, GPN3 / Fold change vs veh, GPN3 / RFU, C9orf123 / Fold change vs veh, C9orf123 / RFU, N4BP2L2 / Fold change vs veh, N4BP2L2 / RFU, ARFIP1 / Fold change vs veh, ARFIP1 / RFU, FAM179B / Fold change vs veh, FAM179B / RFU, BCL10 / Fold change vs veh, BCL10 / RFU, UHRF1BP1L / Fold change vs veh, UHRF1BP1L / RFU, BET1 / Fold change vs veh, BET1 / RFU, CNOT2 / Fold change vs veh, CNOT2 / RFU, ZNF268 / Fold change vs veh, ZNF268 / Fold change vs veh, ZNF507 / RFU, DGCR2 / Fold change vs veh, DGCR2 / RFU, WDSUB1 / Fold change vs veh, WDSUB1 / Fold change vs veh, HSP90B1 /// MIR3652 / RFU, ADSS / Fold change vs veh, ADSS / RFU, GK / Fold change vs veh, GK / RFU, ZNF148 / Fold change vs veh, ZNF148 / RFU, TAF9 / Fold change vs veh, TAF9 / RFU, SLC1A5 / Fold change vs veh, SLC1A5 / RFU, SLMO2 / Fold change vs veh, SLMO2 / RFU, ABCC4 / Fold change vs veh, ABCC4 / RFU, LOC101060439 /// RAP1B / Fold change vs veh, LOC101060439 /// RAP1B / RFU, RFX7 / Fold change vs veh, RFX7 / RFU, GTPBP10 / Fold change vs veh, GTPBP10 / RFU, CNEP1R1 / Fold change vs veh, CNEP1R1 / RFU, BIVM-ERCC5 /// ERCC5 / Fold change vs veh, BIVM-ERCC5 /// ERCC5 / RFU, ILF3 / Fold change vs veh, ILF3 / RFU 11762660_at / Fold change /veh 11762660_at / RFU VCAN (11757783_s_at) / Fold change /veh VCAN (11757783_s_at) / RFU DDX43 (11728927_at) / Fold change /veh DDX43 (11728927_at) / RFU KRT8 (11758188_x_at) / Fold change /veh KRT8 (11758188_x_at) / RFU NKD1 (11759106_at) / Fold change /veh NKD1 (11759106_at) / RFU SRD5A1 (11742802_a_at) / Fold change /veh SRD5A1 (11742802_a_at) / RFU TPSAB1 /// TPSB2 (11721975_s_at) / Fold change /veh TPSAB1 /// TPSB2 (11721975_s_at) / RFU GSTM3 (11746129_a_at) / Fold change /veh GSTM3 (11746129_a_at) / RFU IL23R (11737362_x_at) / Fold change /veh IL23R (11737362_x_at) / RFU TMEM51 (11727254_a_at) / Fold change /veh TMEM51 (11727254_a_at) / RFU PIWIL2 (11732686_x_at) / Fold change /veh PIWIL2 (11732686_x_at) / RFU ORM1 (11744905_x_at) / Fold change /veh ORM1 (11744905_x_at) / RFU CCDC152 (11743942_at) / Fold change /veh CCDC152 (11743942_at) / RFU ECM1 (11717891_a_at) / Fold change /veh ECM1 (11717891_a_at) / RFU IL23R (11748794_a_at) / Fold change /veh IL23R (11748794_a_at) / RFU TNFAIP8L3 (11732012_x_at) / Fold change /veh TNFAIP8L3 (11732012_x_at) / RFU MBOAT4 (11741988_at) / Fold change /veh MBOAT4 (11741988_at) / RFU 11764193_at / Fold change /veh 11764193_at / RFU TMEM53 (11763286_at) / Fold change /veh TMEM53 (11763286_at) / RFU MAGEB2 (11727129_at) / Fold change /veh MAGEB2 (11727129_at) / RFU TMEM200A (11744735_a_at) / Fold change /veh TMEM200A (11744735_a_at) / RFU CCDC152 (11751479_a_at) / Fold change /veh CCDC152 (11751479_a_at) / RFU FAM211A (11726209_a_at) / Fold change /veh FAM211A (11726209_a_at) / RFU RGS16 (11746705_a_at) / Fold change /veh RGS16 (11746705_a_at) / RFU VCAN (11755009_s_at) / Fold change /veh VCAN (11755009_s_at) / RFU RHOB (11743442_s_at) / Fold change /veh RHOB (11743442_s_at) / RFU RGS16 (11720943_a_at) / Fold change /veh RGS16 (11720943_a_at) / RFU RGS16 (11720944_at) / Fold change /veh RGS16 (11720944_at) / RFU, VPS4B / Fold change vs veh, VPS4B / RFU, CREB1 / Fold change vs veh, CREB1 / RFU, DNAJC13 / Fold change vs veh, DNAJC13 / RFU, GNAQ / Fold change vs veh, GNAQ / RFU, CDK5R1 / Fold change vs veh, CDK5R1 / RFU, ZRANB3 / Fold change vs veh, ZRANB3 / RFU, CUL4A / Fold change vs veh, CUL4A / RFU, CCNY / Fold change vs veh, CCNY / RFU, UFL1 / Fold change vs veh, UFL1 / RFU, COG3 / Fold change vs veh, COG3 / RFU, DIAPH2 / Fold change vs veh, DIAPH2 / RFU, SKA2 / Fold change vs veh, SKA2 / RFU, AFF3 / Fold change vs veh, AFF3 / RFU, LMF1 / Fold change vs veh, LMF1 / RFU, IPO11 / Fold change vs veh, IPO11 / RFU, DFFB / Fold change vs veh, DFFB / RFU, FOXP1 / Fold change vs veh, FOXP1 / RFU, CARD8 / Fold change vs veh, CARD8 / RFU, STRN3 / Fold change vs veh, STRN3 / RFU, ADK / Fold change vs veh, ADK / RFU, RASSF2 / Fold change vs veh, RASSF2 / RFU, WIPF1 / Fold change vs veh, WIPF1 / RFU, LARP1B / Fold change vs veh, LARP1B / RFU, RASA1 / Fold change vs veh, RASA1 / RFU, RB1 / Fold change vs veh, RB1 / RFU, PPFIA1 / Fold change vs veh, PPFIA1 / RFU, MAT2A / Fold change vs veh, MAT2A / RFU, CCT5 / Fold change vs veh, CCT5 / RFU, WDR92 / Fold change vs veh, WDR92 / RFU, CUX1 / Fold change vs veh, CUX1 / RFU, TTC7A / Fold change vs veh, TTC7A / RFU, TMEM135 / Fold change vs veh, TMEM135 / RFU, DEPTOR / Fold change vs veh, DEPTOR / RFU, CPM / Fold change vs veh, CPM / RFU, DNAJB6 / Fold change vs veh, DNAJB6 / RFU, CACNA2D3 / Fold change vs veh, CACNA2D3 / RFU, DTX4 / Fold change vs veh, DTX4 / RFU, TFCP2 / Fold change vs veh, TFCP2 / RFU, GMCL1 /// GMCL1P1 / Fold change vs veh, GMCL1 /// GMCL1P1 / RFU, AEBP2 / Fold change vs veh, AEBP2 / RFU, SNHG1 /// SNORD22 /// SNORD25 /// SNORD26 /// SNORD27 /// SNORD28 /// SNORD29 /// SNORD31 / Fold change vs veh, SNHG1 /// SNORD22 /// SNORD25 /// SNORD26 /// SNORD27 /// SNORD28 /// SNORD29 /// SNORD31 / Fold change (Aza/veh), C12orf56 (ProbeSet 11735607_a_at) / Fold change (ACY-1035/veh), C12orf56 (ProbeSet 11735607_a_at) / Fold change (Aza/veh), FGFR1OP (ProbeSet 11751329_s_at) / Fold change (ACY-1035/veh), FGFR1OP (ProbeSet 11751329_s_at) / Fold change (Aza/veh), VPS36 (ProbeSet 11739960_a_at) / Fold change (ACY-1035/veh), VPS36 (ProbeSet 11739960_a_at) / RFU SYPL1 (11715823_x_at) / Fold change /veh SYPL1 (11715823_x_at) / RFU IGFBP7 (11715501_s_at) / Fold change /veh IGFBP7 (11715501_s_at) / RFU REEP3 (11722064_at) / Fold change /veh REEP3 (11722064_at) / RFU IGLL1 (11728026_x_at) / Fold change /veh IGLL1 (11728026_x_at): dose or concentration left out as unconfirmed. The settings on record: MV-4-11 cells, 48 hours. The format is cell-based, human.

Turning to `Nc1ncn([C@@H]2O[C@H](CO)[C@@H](O)[C@H]2O)c(=O)n1` [azacitidine], the “Fold change /veh CASKIN2 (11723855_a_at)” value was determined as 1.13.
